Results taken from US9988600B2, “Cell culture media” (MERCK PATENT GMBH, priority 2013, dated 2018).
Counter-ions that a name gives are not always drawn.

Assay: Effect of polymer embedding on components of DMEM F12 medium (embedded vs non-embedded form);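 note: qualitative label per medium component: Hygros denotes lower hygroscopicity of the embedded form versus the free form, NA denotes not applicable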
Format: physicochemical
Details: component of DMEM F12 medium embedded in polymer, compared to the non-embedded form
From the text: For all components the effect of polymer embedding is shown.
In Table 1, “Hygros” means that if the component is embedded according to the present invention and used in the media composition in its embedded form, the ability of said substance to attract and hold water molecules from the surrounding environment is reduced compared to the non-embedded form.

embedding effect | Compound
Oxid | O=C(O)CCCCC1CCSS1 (racemic) [DL-alpha-lipoic acid]
Solu | O.O.O.O.O.O=S(=O)([O-])[O-].[Cu+2] [Copper sulfate 5H2O]
Solu | O.O.O.O.O.O.O.O=S(=O)([O-])[O-].[Fe+2] [Ferrous sulfate 7H2O]
Stab | Nc1nc2ncc(CNc3ccc(C(=O)N[C@@H](CCC(=O)O)C(=O)O)cc3)nc2c(=O)[nH]1 [Folic acid]
Solu | C[C@H](N)C(=O)O [L-Alanine]
Solu | NC(=O)C[C@H](N)C(=O)O.O [L-Asparagine H2O]
Solu | Cl.N[C@@H](CS)C(=O)O.O [L-Cysteine hydrochloride H2O]
Solu | Cl.Cl.N[C@@H](CSSC[C@H](N)C(=O)O)C(=O)O [L-Cystine 2HCl (mikronisiert), L-Cystine 2HCl (mikronisiert) aus 200635]
Stab | NC(=O)CC[C@H](N)C(=O)O [L-Glutamine]
Solu | Cl.N[C@@H](Cc1cnc[nH]1)C(=O)O.O [L-Histidine HCl H2O]
Solu | CC[C@H](C)[C@H](N)C(=O)O [L-Isoleucine]
Solu | CC(C)C[C@H](N)C(=O)O [L-Leucine]
Solu | CSCC[C@H](N)C(=O)O [L-Methionine]
Solu | N[C@@H](Cc1ccccc1)C(=O)O [L-Phenylalanine]
Solu | N[C@@H](CO)C(=O)O [L-Serine]
Solu | C[C@@H](O)[C@H](N)C(=O)O [L-Threonine]
Solu | N[C@@H](Cc1c[nH]c2ccccc12)C(=O)O [L-Thryptophan]
Solu | CC(C)[C@H](N)C(=O)O [L-Valine]
Oxid | CCCCC/C=C\C/C=C\CCCCCCCC(=O)O [Linoleic acid]
Stab | NC(=O)c1cccnc1 [Niacinamide]
Stab | Cc1cc2nc3c(=O)[nH]c(=O)nc-3n(C[C@H](O)[C@H](O)[C@H](O)CO)c2cc1C [Riboflavin]
Stab | CC(=O)C(=O)[O-].[Na+] [Sodium pyruvate]
Stab | Cc1ncc(C[n+]2csc(CCO)c2C)c(N)n1 [Thiamine HCl]
Solu | O.O.O.O.O.O.O.O=S(=O)([O-])[O-].[Zn+2] [Zinc sulafte 7H2O]
Solu | Vitamin B12

Compound | embedding effect
O=C(O)CCCC[C@@H]1SC[C@@H]2NC(=O)N[C@@H]21 [Biotin] | Stab
C[N+](C)(C)CCO.[Cl-] [Choline chloride] | Hygros
O.O.O.O.O.O.O.O.O.O=[N+]([O-])[O-].O=[N+]([O-])[O-].O=[N+]([O-])[O-].[Fe+3] [Ferric nitrate 9H2O] | Solu
Cl.NCCCC[C@H](N)C(=O)O [L-Lysine hydrochloride] | Solu
N[C@@H](Cc1ccc([O-])cc1)C(=O)[O-].O.O.[Na+].[Na+] [L-Tyrosine 2Na] | Solu
Cl.Cl.NCCCCN [Putrescine 2HCl] | Stab
Cc1ncc(CO)c(CO)c1O.Cl [Pyridoxine HCl] | Stab
